Measured values from ChEMBL document CHEMBL1201862, “PubChem BioAssay data set” (2004).
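Five concentrations, 48 hours, 96-well plates. GI50: concentration for 50% inhibition of growth.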 Calls of active or inactive are those of the source. Rule as the data show it: active = GI50 up to about 1.1 µM and inactive = higher.

Tests used:
Test in all cases: DTP human tumour cell line panel, 48 h
[1] = test system: 786-0
[2] = test system: A549
[3] = test system: ACHN
[4] = test system: BT-549
[5] = test system: CAKI-1
[6] = test system: CCRF-CEM
[7] = test system: COLO 205
[8] = test system: DU-145
[9] = test system: EKVX
[10] = test system: HCC 2998
[11] = test system: HCT-116
[12] = test system: HCT-15
[13] = test system: HL-60
[14] = test system: HOP-62
[15] = test system: HT-29
[16] = test system: Hs-578T
[17] = test system: IGROV-1
[18] = test system: K562
[19] = test system: LOX IMVI
[20] = test system: M14
[21] = test system: MCF7
[22] = test system: MDA-MB-231
[23] = test system: MDA-MB-435
[24] = test system: MDA-N
[25] = test system: MOLT-4
[26] = test system: Malme-3M
[27] = test system: NCI-H226
[28] = test system: NCI-H23
[29] = test system: NCI-H460
[30] = test system: NCI-H522
[31] = test system: NCI/ADR-RES
[32] = test system: OVCAR-3
[33] = test system: OVCAR-4
[34] = test system: OVCAR-5
[35] = test system: OVCAR-8
[36] = test system: PC-3
[37] = test system: RPMI-8226
[38] = test system: RXF 393
[39] = test system: SF-268
[40] = test system: SF-295
[41] = test system: SF-539
[42] = test system: SK-MEL-28
[43] = test system: SK-MEL-2
[44] = test system: SK-MEL-5
[45] = test system: SK-OV-3
[46] = test system: SN12C
[47] = test system: SNB-19
[48] = test system: SNB-75
[49] = test system: SR
[50] = test system: SW-620
[51] = test system: T47D
[52] = test system: TK-10
[53] = test system: U-251
[54] = test system: UACC-257
[55] = test system: UACC-62
[56] = test system: UO-31
[57] = test system: A498
[58] = test system: KM12

For `CCOC(=O)c1c(O)nc2cccc3c2c1-c1cccnc1S3`, the GI50 [1] was 36 µM (inactive), the GI50 [2] was 18.9 µM (inactive) and the GI50 [3] was 28.8 µM (inactive). The GI50 [4] was 22.4 µM (inactive), the GI50 [5] was 16.7 µM (inactive) and the GI50 [6] was 24 µM (inactive). For the same compound, the GI50 [7] was 35.9 µM (inactive), the GI50 [8] was 44.6 µM (inactive) and the GI50 [9] was 30.3 µM (inactive). The GI50 [10] was 50.2 µM (inactive), the GI50 [11] was 44.5 µM (inactive) and the GI50 [12] was 35.8 µM. For the same compound, the GI50 [13] was 20.3 µM (inactive), the GI50 [14] was 25.5 µM (inactive) and the GI50 [15] was 29.4 µM (inactive). The GI50 [16] was 22.4 µM (inactive), the GI50 [17] was 16.9 µM (inactive) and the GI50 [18] was 32.1 µM (inactive). For the same compound, the GI50 [19] was 25.1 µM (inactive), the GI50 [20] was 32.7 µM (inactive) and the GI50 [21] was 1.14 µM (inactive). The GI50 [22] was 39 µM (inactive), the GI50 [23] was 28.8 µM (inactive) and the GI50 [24] was 39 µM (inactive). For the same compound, the GI50 [25] was 16.9 µM (inactive), the GI50 [26] was 34 µM (inactive) and the GI50 [27] was 19.9 µM (inactive). For the same compound, the GI50 [28] was 21 µM (inactive), the GI50 [29] was 24.4 µM (inactive) and the GI50 [30] was 25.8 µM (inactive). The GI50 [31] was 33.1 µM (inactive), the GI50 [32] was 28.6 µM (inactive) and the GI50 [33] was 33.1 µM (inactive). For the same compound, the GI50 [34] was 24 µM (inactive), the GI50 [35] was 35.5 µM (inactive) and the GI50 [36] was 15.8 µM (inactive). The GI50 [37] was 17.5 µM (inactive), the GI50 [38] was 11 µM (inactive) and the GI50 [39] was 28.8 µM (inactive). For the same compound, the GI50 [40] was 23.7 µM (inactive), the GI50 [41] was 27.6 µM (inactive) and the GI50 [42] was 30.8 µM (inactive). The GI50 [43] was 56.1 µM (inactive), the GI50 [44] was 11.7 µM (inactive) and the GI50 [45] was 30.9 µM (inactive). The GI50 [46] was 39.9 µM (inactive), the GI50 [47] was 33.8 µM (inactive) and the GI50 [48] was 21.2 µM (inactive). For the same compound, the GI50 [49] was 28.6 µM (inactive), the GI50 [50] was 55.3 µM (inactive) and the GI50 [51] was 9.86 µM (inactive). The GI50 [52] was 44.7 µM (inactive), the GI50 [53] was 21.3 µM (inactive) and the GI50 [54] was 37.6 µM (inactive). For the same compound, the GI50 [55] was 16.3 µM (inactive) and the GI50 [56] was 23 µM (inactive).
`CC1CC(NC2CCCCC2)=Nc2ccccc2N1Cc1ccccc1` (stereo not drawn) was tested, and the GI50 [1] was 7.71 µM (inactive), the GI50 [57] was 2.05 µM (inactive) and the GI50 [2] was 4.43 µM (inactive). For the same compound, the GI50 [3] was 10.4 µM (inactive), the GI50 [4] was 6.05 µM (inactive) and the GI50 [5] was 5.46 µM (inactive). The GI50 [6] was 4.13 µM (inactive), the GI50 [7] was 4.35 µM (inactive) and the GI50 [8] was 4.66 µM (inactive). For the same compound, the GI50 [9] was 8.22 µM (inactive), the GI50 [10] was 2.31 µM (inactive) and the GI50 [11] was 4.71 µM (inactive). The GI50 [12] was 5.33 µM, the GI50 [13] was 4.51 µM (inactive) and the GI50 [14] was 7.03 µM (inactive). For the same compound, the GI50 [15] was 2.82 µM (inactive), the GI50 [16] was 3.95 µM (inactive) and the GI50 [17] was 1.91 µM (inactive). For the same compound, the GI50 [18] was 1.73 µM (inactive), the GI50 [58] was 4.75 µM (inactive) and the GI50 [19] was 2.11 µM (inactive). The GI50 [20] was 2.04 µM (inactive), the GI50 [21] was 3.66 µM (inactive) and the GI50 [22] was 4.51 µM (inactive). The GI50 [23] was 3.38 µM (inactive), the GI50 [24] was 3.69 µM (inactive) and the GI50 [25] was 3.55 µM (inactive). For the same compound, the GI50 [26] was 1.49 µM (inactive), the GI50 [27] was 12.7 µM (inactive) and the GI50 [28] was 7.33 µM (inactive). For the same compound, the GI50 [29] was 3.37 µM (inactive), the GI50 [30] was 3.03 µM (inactive) and the GI50 [31] was 5.85 µM (inactive). The GI50 [32] was 6.92 µM (inactive), the GI50 [33] was 5.78 µM (inactive) and the GI50 [34] was 5.09 µM (inactive). For the same compound, the GI50 [35] was 6.59 µM (inactive), the GI50 [36] was 5.41 µM (inactive) and the GI50 [37] was 2.6 µM (inactive). For the same compound, the GI50 [38] was 2.36 µM (inactive), the GI50 [39] was 4.06 µM (inactive) and the GI50 [40] was 6.03 µM (inactive). The GI50 [41] was 5.62 µM (inactive), the GI50 [42] was 4.38 µM (inactive) and the GI50 [43] was 11.2 µM (inactive). For the same compound, the GI50 [44] was 2.43 µM (inactive), the GI50 [45] was 11.2 µM (inactive) and the GI50 [46] was 7.85 µM (inactive). The GI50 [47] was 11.3 µM (inactive), the GI50 [48] was 0.417 µM (active) and the GI50 [49] was 2.64 µM (inactive). The GI50 [50] was 6.37 µM (inactive), the GI50 [51] was 4.18 µM (inactive) and the GI50 [52] was 12.3 µM (inactive). For the same compound, the GI50 [53] was 7.16 µM (inactive), the GI50 [54] was 3.45 µM (inactive) and the GI50 [55] was 1.79 µM (inactive). The GI50 [56] was 4.66 µM (inactive).
`COc1ccccc1-n1c(=O)n(C)c(=O)n1C(C)(C)C` was tested, and the GI50 [1] was > 100 µM (inactive), the GI50 [57] was > 100 µM (inactive) and the GI50 [2] was > 100 µM (inactive). The GI50 [4] was > 100 µM (inactive), the GI50 [5] was > 100 µM (inactive) and the GI50 [6] was > 100 µM (inactive). The GI50 [7] was > 100 µM (inactive), the GI50 [8] was > 100 µM (inactive) and the GI50 [9] was > 100 µM (inactive). For the same compound, the GI50 [10] was 0.288 µM (active), the GI50 [11] was > 100 µM (inactive) and the GI50 [12] was greater than 100 µM. For the same compound, the GI50 [13] was > 100 µM (inactive), the GI50 [15] was > 100 µM (inactive) and the GI50 [16] was > 100 µM (inactive). For the same compound, the GI50 [18] was > 100 µM (inactive), the GI50 [58] was > 100 µM (inactive) and the GI50 [19] was > 100 µM (inactive). For the same compound, the GI50 [20] was > 100 µM (inactive), the GI50 [21] was > 100 µM (inactive) and the GI50 [22] was > 100 µM (inactive). For the same compound, the GI50 [23] was > 100 µM (inactive), the GI50 [24] was > 100 µM (inactive) and the GI50 [25] was > 100 µM (inactive). The GI50 [26] was > 100 µM (inactive), the GI50 [27] was > 100 µM (inactive) and the GI50 [28] was > 100 µM (inactive). The GI50 [29] was > 100 µM (inactive), the GI50 [30] was 29.3 µM (inactive) and the GI50 [31] was > 100 µM (inactive). For the same compound, the GI50 [32] was > 100 µM (inactive), the GI50 [33] was > 100 µM (inactive) and the GI50 [34] was > 100 µM (inactive). The GI50 [35] was > 100 µM (inactive), the GI50 [36] was > 100 µM (inactive) and the GI50 [37] was > 100 µM (inactive). For the same compound, the GI50 [38] was > 100 µM (inactive), the GI50 [39] was > 100 µM (inactive) and the GI50 [41] was > 100 µM (inactive). The GI50 [42] was > 100 µM (inactive), the GI50 [43] was > 100 µM (inactive) and the GI50 [44] was > 100 µM (inactive). For the same compound, the GI50 [45] was > 100 µM (inactive), the GI50 [46] was > 100 µM (inactive) and the GI50 [47] was > 100 µM (inactive). For the same compound, the GI50 [48] was > 100 µM (inactive), the GI50 [49] was > 100 µM (inactive) and the GI50 [50] was > 100 µM (inactive). For the same compound, the GI50 [51] was > 100 µM (inactive), the GI50 [52] was > 100 µM (inactive) and the GI50 [53] was > 100 µM (inactive). The GI50 [54] was > 100 µM (inactive), the GI50 [55] was > 100 µM (inactive) and the GI50 [56] was > 100 µM (inactive).
